# Results published in patent publication US6733759B2, “Nutrient formulation and process for enhancing the health, livability, cumulative weight gain or feed efficiency in poultry and other animals” (Novus International, Inc., priority 1995, dated 2004).
# Test system: IgA in the bile
# Test: IgA in bile by indirect ELISA in birds given 1027 with or without adjuvants
# Assay type: in vivo, chickens
# Details: day 21 after oral vaccine and adjuvant in 1027
# Excerpt: IgA is the antibody class associated with resistance to diseases which attack the intestinal mucosa, such as coccidiosis.
# The data presented in FIG. 5 were obtained by indirect enzyme linked immunosorbent assay (ELISA) using monoclonal mouse anti-chicken IgA as the first antibody, polyclonal goat anti-chicken IgA as the second antibody, and biotin-conjugated anti-goat immunoglobulin for detection. Samples were read on an automated ELISA plate reader, and are corrected for differences in dilution.
compound,measurement,value
c1ccc([C@H]2CN3CCSC3=N2)cc1 [levamisole],IgA in the bile vs 1027 alone,higher day 21 biliary IgA levels
